Experimental data as given in ChEMBL document CHEMBL1135886, “Substituted diphenyl sulfides as selective serotonin transporter ligands: synthesis and in vitro evaluation” (J Med Chem, 2002).

Columns and labels:
[1] = target: Sodium-dependent serotonin transporter (Rattus norvegicus, UniProt P31652); assay: Inhibition of [3H]paroxetine binding to serotonin transporter (SERT) of rat cortical membrane
[2] = target: Norepinephrine transporter (Rattus norvegicus, UniProt Q9WTR4); assay: Inhibition of [3H]nisoxetine binding to norepinephrine transporter (NET) of rat cortical homogenates
Norepinephrine transporter, sequence (Q9WTR4 whole entry): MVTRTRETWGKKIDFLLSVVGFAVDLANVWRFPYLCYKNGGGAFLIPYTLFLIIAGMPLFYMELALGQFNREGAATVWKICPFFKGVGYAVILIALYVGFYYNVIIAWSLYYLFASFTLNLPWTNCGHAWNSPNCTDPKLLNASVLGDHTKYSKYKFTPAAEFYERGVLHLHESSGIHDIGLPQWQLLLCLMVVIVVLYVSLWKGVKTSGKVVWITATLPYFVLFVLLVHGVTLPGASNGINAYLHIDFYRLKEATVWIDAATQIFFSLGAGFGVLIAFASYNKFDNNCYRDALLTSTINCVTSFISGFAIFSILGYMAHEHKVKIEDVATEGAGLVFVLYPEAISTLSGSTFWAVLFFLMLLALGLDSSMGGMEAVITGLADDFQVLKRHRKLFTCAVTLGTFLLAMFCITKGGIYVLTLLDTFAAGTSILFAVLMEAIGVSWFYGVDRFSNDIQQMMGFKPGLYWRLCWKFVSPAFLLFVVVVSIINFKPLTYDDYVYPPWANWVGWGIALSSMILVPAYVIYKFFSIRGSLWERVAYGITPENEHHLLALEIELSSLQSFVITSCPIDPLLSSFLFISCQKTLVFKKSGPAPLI

[3] = target: Sodium-dependent dopamine transporter (Rattus norvegicus, UniProt P23977); assay: Inhibition of [3H]-GBR-12,935 binding to dopamine transporter (DAT) of rat striatal membranes; assay type: cell membranes, Membrane
Sodium-dependent dopamine transporter, sequence (P23977 whole entry): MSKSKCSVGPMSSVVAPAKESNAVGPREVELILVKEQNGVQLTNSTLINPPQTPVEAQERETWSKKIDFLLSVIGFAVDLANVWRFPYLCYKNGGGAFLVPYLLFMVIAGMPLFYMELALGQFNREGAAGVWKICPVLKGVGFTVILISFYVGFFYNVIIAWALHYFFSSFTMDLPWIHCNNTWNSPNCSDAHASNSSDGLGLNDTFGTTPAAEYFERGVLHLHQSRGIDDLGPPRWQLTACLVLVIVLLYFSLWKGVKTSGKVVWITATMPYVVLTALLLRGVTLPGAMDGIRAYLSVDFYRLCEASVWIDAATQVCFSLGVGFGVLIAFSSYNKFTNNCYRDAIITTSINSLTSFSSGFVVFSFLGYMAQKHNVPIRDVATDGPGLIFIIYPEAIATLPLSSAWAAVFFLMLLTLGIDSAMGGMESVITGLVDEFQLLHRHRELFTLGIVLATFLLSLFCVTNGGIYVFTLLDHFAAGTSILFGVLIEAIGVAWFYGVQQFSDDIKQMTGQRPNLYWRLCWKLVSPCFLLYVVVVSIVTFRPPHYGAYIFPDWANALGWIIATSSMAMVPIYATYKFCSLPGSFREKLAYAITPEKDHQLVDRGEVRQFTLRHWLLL

Sodium-dependent serotonin transporter, sequence (P31652 whole entry): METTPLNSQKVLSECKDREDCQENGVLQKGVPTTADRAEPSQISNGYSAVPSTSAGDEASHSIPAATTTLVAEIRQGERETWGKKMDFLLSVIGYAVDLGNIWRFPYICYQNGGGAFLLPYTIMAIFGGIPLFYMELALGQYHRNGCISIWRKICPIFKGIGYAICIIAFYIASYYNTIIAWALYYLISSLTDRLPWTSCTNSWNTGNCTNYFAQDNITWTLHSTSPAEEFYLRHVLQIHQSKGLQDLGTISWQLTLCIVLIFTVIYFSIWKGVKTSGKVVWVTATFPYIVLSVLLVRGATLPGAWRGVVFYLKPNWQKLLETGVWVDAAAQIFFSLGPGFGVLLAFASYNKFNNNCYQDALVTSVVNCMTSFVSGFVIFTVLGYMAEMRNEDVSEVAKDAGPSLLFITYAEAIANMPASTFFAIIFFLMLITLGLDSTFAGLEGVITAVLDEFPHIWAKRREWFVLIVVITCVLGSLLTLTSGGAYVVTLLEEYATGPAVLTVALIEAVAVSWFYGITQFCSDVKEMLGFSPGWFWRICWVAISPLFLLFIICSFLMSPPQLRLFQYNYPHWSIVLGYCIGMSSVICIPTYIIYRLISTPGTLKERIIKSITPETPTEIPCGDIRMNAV

| SMILES | Ki [1] [nM] | Ki [2] [nM] | Ki [3] [nM] |
| --- | --- | --- | --- |
| CN(C)Cc1ccccc1Sc1ccc(Br)cc1CO | 1.92 | 5.8 | 950 |
| CN(C)Cc1ccccc1Sc1ccc(Br)cc1N | 2.23 | 107 | 171 |
| CNCc1ccccc1Sc1ccc(I)cc1CO | 0.98 | 12.8 | 760 |
| COCc1cc(Br)ccc1Sc1ccccc1CN(C)C | 2.75 | 326 | > 1000 |
| COCc1cc(I)ccc1Sc1ccccc1CN(C)C | 2.5 | 212 | 172 |
| CN(C)C(=O)c1ccccc1Sc1ccc(Br)cc1C=O | > 1000 | > 1000 | > 1000 |
| CN(C)C(=O)c1ccccc1Sc1ccc(F)cc1C=O | 695 | > 1000 | > 1000 |
| CN(CCF)Cc1ccccc1Sc1ccc(I)cc1N | 19.3 | > 1000 | > 1000 |
| CN(C)Cc1ccccc1Sc1ccc(/C=C/I)cc1N | 53.3 | 80.2 | > 1000 |
| CNCc1ccccc1Sc1ccc(I)cc1N | 1.25 | 714 | 818 |
| CN(C)Cc1ccccc1Sc1ccc(I)cc1N |  | 683 | > 1000 |
| Cc1ccc(Sc2ccccc2CN(C)C)c(N)c1 | 1.65 | 325 | > 1000 |
| CN(C)Cc1ccccc1Sc1ccc(F)cc1CO | 7.96 | 28.4 | 339 |
| CNCc1ccccc1Sc1ccc(Br)cc1N | 1.49 | 107 | 171 |
